Source: ChEMBL document CHEMBL5346930, “Discovery of novel N-benzylarylamide-dithiocarbamate based derivatives as dual inhibitors of tubulin polymerization and LSD1 that inhibit gastric cancers” (Eur J Med Chem, 2023)
Activity calls are given as the source filed them. The calls are words filed in the database; no cut-off is given here.

Assays:
SGC-7901 [1] = assay: Antiproliferative activity against human SGC-7901 cells assessed as inhibition of cell growth incubated for 48 hrs by MTT assay; assay type: functional, cell-based; details: SGC-7901, 48 h
HGC-27 = assay: Antiproliferative activity against human HGC-27 cells assessed as inhibition of cell growth incubated for 48 hrs by MTT assay; assay type: functional, cell-based; details: HGC-27, 48 h
PC-3 = assay: Antiproliferative activity against human PC-3 cells assessed as inhibition of cell growth incubated for 48 hrs by MTT assay; assay type: functional, cell-based; details: PC-3, 48 h
DU-145 = assay: Antiproliferative activity against human DU-145 cells assessed as inhibition of cell growth incubated for 48 hrs by MTT assay; assay type: functional, cell-based; details: DU-145, 48 h
ECa-109 cell line = assay: Antiproliferative activity against human EC109 cells assessed as inhibition of cell growth incubated for 48 hrs by MTT assay; assay type: functional, cell-based; details: ECa-109, 48 h
Huh-7 = assay: Antiproliferative activity against human Huh-7 cells assessed as inhibition of cell growth incubated for 48 hrs by MTT assay; assay type: functional, cell-based; details: Huh-7, 48 h
MGC-803 [2] = assay: Antiproliferative activity against human MGC-803 cells assessed as inhibition of cell growth at 10 to 30 nM by MTT assay; assay type: functional, cell-based; details: dose 10-30 nM, time 0-60 hrs, TDE = time-dependent effect
Tubulin (Homo sapiens) = Tubulin (Homo sapiens) (UniProt P68371+Q9H4B7+P0DPH7+P68366+Q13509+Q71U36+P04350+Q3ZCM7+P07437+P68363+Q9BQE3+Q6PEY2+Q13885+Q9BVA1+Q9BUF5); assay: Inhibition of tubulin polymerization in human SGC-7901 cells assessed as destruction of microtubule network incubated for 48 hrs by immunofluorescence staining based fluorescence microscopic analysis; assay type: cell-based; details: dose 0-30 nmol/L
[3] = target: T1, Lysine-specific histone demethylase 1A (Homo sapiens, UniProt O60341); assay: Inhibition of LSD1 in human SGC-7901 cells assessed as increase in H3K4me1 expression level at 0 to 30 nmol/L incubated for 48 hrs by Western blot analysis; assay type: cell-based; details: dose 0-30 nmol/L
[4] = target: T1, Lysine-specific histone demethylase 1A; assay: Inhibition of LSD1 in human SGC-7901 cells assessed as increase in H3K9me1/2 expression level at 0 to 30 nmol/L incubated for 48 hrs by Western blot analysis; assay type: cell-based; details: dose 0-30 nmol/L
SGC-7901 [5] = assay: Induction of cell cycle arrest in human SGC-7901 cells assessed as downregulation of Wee1 protein expression incubated for 48 hrs by Western blot analysis; assay type: functional, cell-based; details: dose 0-30 nmol/L
SGC-7901 [6] = assay: Induction of cell cycle arrest in human SGC-7901 cells assessed as reduction in cyclin B1 protein expression incubated for 48 hrs by Western blot analysis; assay type: functional, cell-based; details: dose 0-30 nmol/L
MGC-803 [7] = assay: Induction of cell cycle arrest in human MGC-803 cells assessed as increase in p-Histone H3 protein expression incubated for 48 hrs by Western blot analysis; assay type: functional, cell-based; details: dose 0-24 nmol/L
SGC-7901 [8] = assay: Induction of cell cycle arrest in human SGC-7901 cells assessed as increase in p-Histone H3 protein expression incubated for 48 hrs by Western blot analysis; assay type: functional, cell-based; details: dose 0-30 nmol/L
MGC-803 [9] = assay: Induction of morphological changes in human MGC-803 cells assessed as appearance of oblate and bright cells at 0 to 24 nmol/L incubated for 48 hrs by bright field microscopic analysis; assay type: functional, cell-based; details: dose 0-24 nmol/L
MGC-803 [10] = assay: Induction of morphological changes in human MGC-803 cells assessed as appearance of bright and shrunken nucleus at 0 to 24 nmol/L incubated for 48 hrs by DAPI staining based analysis; assay type: functional, cell-based; details: dose 0-24 nmol/L
MGC-803 [11] = assay: Induction of morphological changes in human MGC-803 cells assessed as appearance of broken nucleus at 24 nM incubated for 48 hrs by DAPI staining based analysis; assay type: functional, cell-based
SGC-7901 [12] = assay: Induction of morphological changes in human SGC-7901 cells assessed as appearance of broken nucleus at 30 nM incubated for 48 hrs by DAPI staining based analysis; assay type: functional, cell-based
SGC-7901 [13] = assay: Induction of apoptosis in human SGC-7901 cells assessed as increase in total apoptotic cells incubated for 48 hrs by Annexin-FITC/PI staining based flow cytometry analysis; assay type: functional, cell-based; details: dose 0-30 nmol/L
MGC-803 [14] = assay: Induction of DNA damage in human MGC-803 cells assessed as DNA fragmentation by measuring increase in comet tails by fluorescence microscope based comet assay; assay type: functional, cell-based; details: dose 0-24 nmol/L
SGC-7901 [15] = assay: Induction of DNA damage in human SGC-7901 cells assessed as DNA fragmentation by measuring increase in comet tails by fluorescence microscope based comet assay; assay type: functional, cell-based; details: dose 0-30 nmol/L
MGC-803 [16] = assay: Induction of apoptosis in human MGC-803 cells assessed as downregulation of Bcl-2 protein expression incubated for 48 hrs by Western blot analysis; assay type: functional, cell-based; details: dose 0-24 nmol/L
MGC-803 [17] = assay: Induction of apoptosis in human MGC-803 cells assessed as downregulation of Mcl-1 protein expression incubated for 48 hrs by Western blot analysis; assay type: functional, cell-based; details: dose 0-24 nmol/L
SGC-7901 [18] = assay: Induction of apoptosis in human SGC-7901 cells assessed as downregulation of Bcl-2 protein expression incubated for 48 hrs by Western blot analysis; assay type: functional, cell-based; details: dose 0-30 nmol/L
MGC-803 [19] = assay: Induction of apoptosis in human MGC-803 cells assessed as increase in cleaved caspase-3 level at 0 to 24 nmol/L incubated for 48 hrs by Western blot analysis; assay type: functional, cell-based; details: dose 0-24 nmol/L
SGC-7901 [20] = assay: Induction of apoptosis in human SGC-7901 cells assessed as increase in cleaved caspase-3 level at 0 to 30 nmol/L incubated for 48 hrs by Western blot analysis; assay type: functional, cell-based; details: dose 0-30 nmol/L
MGC-803 [21] = assay: Induction of apoptosis in human MGC-803 cells assessed as increase in cleaved caspase-7 level at 0 to 24 nmol/L incubated for 48 hrs by Western blot analysis; assay type: functional, cell-based; details: dose 0-24 nmol/L
SGC-7901 [22] = assay: Induction of apoptosis in human SGC-7901 cells assessed as increase in cleaved caspase-7 level at 0 to 30 nmol/L incubated for 48 hrs by Western blot analysis; assay type: functional, cell-based; details: dose 0-30 nmol/L
MGC-803 [23] = assay: Inhibition of cell migration in human MGC-803 cells assessed as reduction in rate of wound healing at 4 nmol/L measured after 0 to 48 hrs; assay type: functional, cell-based; details: time 0-48 hrs
MGC-803 [24] = assay: Antitumor activity against human MGC-803 cells xenografted in BALB/c nude mouse assessed as tumor growth inhibition at 25 mg/kg/day, ip administered every day for 21 days; assay type: functional, organism-based; details: time 21.0 day
[25] = Hepatotoxicity in BALB/c nude mouse xenografted with human MGC-803 cells assessed as effect on ALT level at 25 mg/kg/day, ip administered every day for 21 days; assay type: toxicity, organism-based; details: in vivo, 504 h, time 21 day
[26] = Nephrotoxicity in BALB/c nude mouse xenografted with human MGC-803 cells assessed as effect on BUN level at 25 mg/kg/day, ip administered every day for 21 days; assay type: toxicity, organism-based; details: in vivo, 504 h, time 21 day
[27] = Nephrotoxicity in BALB/c nude mouse xenografted with human MGC-803 cells assessed as effect on creatinine level at 25 mg/kg/day, ip administered every day for 21 days; assay type: toxicity, organism-based; details: in vivo, 504 h, time 21 day
HCT-116 = assay: cells; details: Homo sapiens, HCT-116, 48 h
Description: Antiproliferative activity against human HCT-116 cells assessed as inhibition of cell growth incubated for 48 hrs by MTT assay

KYSE-450 = assay: cells; details: Homo sapiens, KYSE-450, 48 h
Description: Antiproliferative activity against human KYSE-450 cells assessed as inhibition of cell growth incubated for 48 hrs by MTT assay

MGC-803 [28] = assay: Antiproliferative activity against human MGC-803 cells assessed as inhibition of cell growth incubated for 48 hrs by MTT assay

`COc1ccc(CN(C(=O)CSC(=S)N2CCN(c3ccc(N)cc3)CC2)c2cc(OC)c(OC)c(OC)c2)cc1O` showed an IC50 (SGC-7901 [1]) of 19.5 nM, an IC50 (HGC-27) of 24.5 nM and an IC50 (PC-3) of 44.6 nM. It also gave an IC50 (DU-145) of 49.9 nM, an IC50 (ECa-109 cell line) of 114 nM and an IC50 (Huh-7) of 47.9 nM. For the same molecule, the Activity (MGC-803 [2]) was “Tde”, the inhibition (Tubulin (Homo sapiens)) was “Dose-Dependent Effect” and the inhibition [3] was “Active”. For the same molecule, the inhibition [4] was “Active”, the Activity (SGC-7901 [5]) was “Dose-Dependent Effect” and the Activity (SGC-7901 [6]) was “Dose-Dependent Effect”. The Activity (MGC-803 [7]) was “Dose-Dependent Effect”, the Activity (SGC-7901 [8]) was “Dose-Dependent Effect” and the Activity (MGC-803 [9]) was “Active”. The Activity (MGC-803 [10]) was “Active”, the Activity (MGC-803 [11]) was “Active” and the Activity (SGC-7901 [12]) was “Active”. The Activity (SGC-7901 [13]) was “Dose-Dependent Effect”, the Activity (MGC-803 [14]) was “Dose-Dependent Effect” and the Activity (SGC-7901 [15]) was “Dose-Dependent Effect”. For the same molecule, the Activity (MGC-803 [16]) was “Dose-Dependent Effect”, the Activity (MGC-803 [17]) was “Dose-Dependent Effect” and the Activity (SGC-7901 [18]) was “Dose-Dependent Effect”. For the same molecule, the Activity (MGC-803 [19]) was “Active”, the Activity (SGC-7901 [20]) was “Active” and the Activity (MGC-803 [21]) was “Active”. The Activity (SGC-7901 [22]) was “Active”, the inhibition (MGC-803 [23]) was “Active” and the Activity (MGC-803 [24]) was “Active”. The Activity [25] was “Non-Toxic”, the Activity [26] was “Non-Toxic” and the Activity [27] was “Non-Toxic”. For the same molecule, the IC50 (HCT-116) was 44 nM, the IC50 (KYSE-450) was 30 nM and the Activity (MGC-803 [28]) was “Dose-Dependent Effect”.
